The source of these data is patent US10934224B2, “Production of arginine-rich proteins from wastewater and use as a fertilizer” (Genebiologics, LLC, priority 2016, dated 2021).

The conditions of data set [1]: cited from earlier work.
The nature of data set [2]: Inhibition of cobalt binding to cation exchange resin. To be noted: for effect on binding of cobalt to CM sepharose: 2.5 μM CoCl2, 0.95 μM inhibitor. On the procedure:
After sitting for 1 minute the sepharose was washed 2× with water to remove excess cobalt and inhibitor. The cobalt was then stripped from the column material with 50 μl of 50 mM EDTA and this cobalt-containing wash was made basic with 50 μl of 50 mM NaOH. The cobalt-containing wash was then monitored on a DU800 spectroscope at 463 nm wavelength for the data of Table 2 (FIG. 7), and from 350 nm to 650 nm for FIG. 5. The data of FIG. 5 and FIG. 7 were from separate experiments acquired on two different days.

Data set [3] relates to Arabidopsis thaliana seeds. In words: Arabidopsis thaliana seed germination and growth in liquid culture. It counts as in vivo. To be noted: for root growth: 100 μg/ml in water; for optimal level (germination): day 4; for optimal level (biomass): day 5. How it is done: Approximately 300 Arabidopsis thaliana seeds were soaked in 75% ethanol for one minute, then soaked in 10% bleach, 0.02% TRITON×100 for five minutes, then washed five times with sterile water. The seeds were then resuspended in about 4 ml water, and dispensed into 30 Eppendorf tubes at approximately 100 microliters per tube, for a total of 8-9 seeds per tube. Test conditions included either water, 1× or 0.1×MS medium (Caisson; […] Root length and stem lengths are in mm.

In another data set the test system is E. coli strain NK5992. In words: Growth of E. coli arginine auxotroph on arginine or polyarginine. The data set is classed as cell-based. On the procedure: Cells were grown in triplicate at 37° C. on a 96-well plate with measurement at 600 nm using a Tecan InfiniteM200 pro.

Take `N=C(N)NCCC[C@H](N)C(=O)O` [arginine]: the “pKa of guanidinium group” value in data set [1] is “approximately 12.4”. Also, the “effect on binding of cobalt to CM sepharose” value (from here on “effect on binding of cobalt”) in data set [2] is recorded as “not by the presence of arginine”. For the same compound, in data set [2] (listed as Arginine), the “effect on binding of cobalt” value is recorded as “enhanced the binding of cobalt”. The “competition with cobalt for binding to CM sepharose” value in data set [2] (2.6-fold excess cobalt per arginine monomer, anionic sites limiting) is “did not compete”. For the same compound, in data set [3], the root growth result is on record as “not found”, the “optimal level (germination)” value was 100 µg/mL and the “optimal level (biomass)” value stood at 100 µg/mL. Besides, in data set [3] (day 4, added to 0.1×MS medium), the “effect on percent germination” value is listed as “same relative effect”.
Turning to polyarginine, the “effect on binding of cobalt” value in data set [2] is listed as “inhibited”. In addition, in data set [3], the root growth result is given as “large amount of root growth”, the “optimal level (germination)” value came out at 100 µg/mL and the “optimal level (biomass)” value is 100 µg/mL. The growth entry in data set [3] (0.1× MS, 10 μg/ml, isolated case) was “increased growth”. Also, in the data set on E. coli strain NK5992 (M9 medium, 37° C., 600 nm), the “growth of arginine auxotroph on the substance” value is on record as “does grow on polyarginine”. Moreover, in the data set with E. coli strain NK5992 (on a per-monomer equivalency), the “growth relative to arginine monomer” value is recorded as “grows more poorly”.
